Measurements taken from PubChem BioAssay (NCI).
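Growth conditions: 96-well plates. Treatment: test compound, 48 hours, 5 concentrations. Analysis: linear interpolation between bracketing concentrations; unreached endpoints set to highest concentration. At the TGI there is no net growth.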

Experiments:
Assay in all cases: NCI-60 cell line screen, 48 h
MDA-MB-435 = test system: MDA-MB-435
DU-145 prostate = test system: DU-145 prostate
OVCAR-8 ovarian = test system: OVCAR-8 ovarian
NCI/ADR-RES ovarian = test system: NCI/ADR-RES ovarian
PC-3 prostate = test system: PC-3 prostate
NCI-H226 lung = test system: NCI-H226 lung
RXF 393 renal = test system: RXF 393 renal
IGROV1 ovarian = test system: IGROV1 ovarian
OVCAR-5 ovarian = test system: OVCAR-5 ovarian
SW-620 colon = test system: SW-620 colon
SK-MEL-28 melanoma = test system: SK-MEL-28 melanoma
RPMI-8226 leukemia = test system: RPMI-8226 leukemia
SK-MEL-2 melanoma = test system: SK-MEL-2 melanoma
786-0 renal = test system: 786-0 renal
SR leukemia = test system: SR leukemia
CCRF-CEM leukemia = test system: CCRF-CEM leukemia
NCI-H522 lung = test system: NCI-H522 lung
SNB-19 CNS = test system: SNB-19 CNS
M14 melanoma = test system: M14 melanoma
HS 578T breast = test system: HS 578T breast
OVCAR-4 ovarian = test system: OVCAR-4 ovarian
MALME-3M melanoma = test system: MALME-3M melanoma
A498 renal = test system: A498 renal
HOP-62 NSCLC = test system: HOP-62 NSCLC
UACC-62 melanoma = test system: UACC-62 melanoma
SNB-75 CNS = test system: SNB-75 CNS
SF-539 CNS = test system: SF-539 CNS
NCI-H23 lung = test system: NCI-H23 lung
TK-10 renal = test system: TK-10 renal
HCT-15 colon = test system: HCT-15 colon
MOLT-4 leukemia = test system: MOLT-4 leukemia
SK-OV-3 ovarian = test system: SK-OV-3 ovarian
SF-295 CNS = test system: SF-295 CNS
HT29 colon = test system: HT29 colon
HCC-2998 colon = test system: HCC-2998 colon
K-562 leukemia = test system: K-562 leukemia
SK-MEL-5 melanoma = test system: SK-MEL-5 melanoma
EKVX NSCLC = test system: EKVX NSCLC
CAKI-1 renal = test system: CAKI-1 renal
ACHN renal = test system: ACHN renal
NCI-H460 lung = test system: NCI-H460 lung
MCF7 breast = test system: MCF7 breast
U251 CNS = test system: U251 CNS
KM12 colon = test system: KM12 colon
OVCAR-3 ovarian = test system: OVCAR-3 ovarian
COLO 205 colon = test system: COLO 205 colon
SF-268 CNS = test system: SF-268 CNS
MDA-MB-231 breast = test system: MDA-MB-231 breast
T-47D breast = test system: T-47D breast
UACC-257 melanoma = test system: UACC-257 melanoma
A549 NSCLC = test system: A549 NSCLC
UO-31 renal = test system: UO-31 renal
HOP-92 NSCLC = test system: HOP-92 NSCLC
LOX IMVI melanoma = test system: LOX IMVI melanoma
MDA-N = test system: MDA-N

Measured: TGI

CN1C(=O)CC2CCCN2C1=O (stereo not given)
> 100 µM: all assays above
